pEC50, pIC50: −log10 of the molar value. Blank lines part the entries; values can stand above or below the compound they belong to.
Tests used:
Plasmodium falciparum [1] = assay: Antimalarial activity against chloroquine-resistant Plasmodium falciparum K1; assay type: functional, organism-based
[2] = Half life in simulated stomach acid; assay type: ADME
Plasmodium berghei [3] = assay: Antimalarial activity against chloroquine-sensitive Plasmodium berghei infected in mouse; assay type: functional
Plasmodium yoelii = assay: Antimalarial activity against chloroquine-resistant Plasmodium yoelii infected in po dosed mouse; assay type: functional
Plasmodium berghei [4] = assay: Antimalarial activity against Plasmodium berghei infected in sc dosed mouse; assay type: functional, organism-based
Plasmodium falciparum [5] = assay: Antimalarial activity against chloroquine-resistant Plasmodium falciparum; assay type: functional, organism-based
Plasmodium vinckei [6] = assay: Antimalarial activity against Plasmodium vinckei infected in po dosed mouse assessed as decrease in parasitemia by peters four day suppressive test; assay type: functional; conditions: 96 h
Plasmodium falciparum [7] = assay: Antimalarial activity against chloroquine-sensitive Plasmodium falciparum; assay type: functional, organism-based
Plasmodium vinckei [8] = assay: Antimalarial activity against Plasmodium vinckei infected in ip dosed mouse assessed as decrease in parasitemia by peters four day suppressive test; assay type: functional; conditions: 96 h
Plasmodium falciparum [9] = assay: Antimalarial activity against chloroquine-sensitive Plasmodium falciparum FCR-3; assay type: functional; conditions: FCR-3/Gambia
Plasmodium falciparum [10] = assay: Antimalarial activity against Plasmodium falciparum; assay type: functional, organism-based
[11] = Oral bioavailability in rat at 50 mg/kg; assay type: ADME, organism-based; conditions: in vivo
[12] = Half life of the compound in HCl solution at pH 1; assay type: physicochemical
[13] = Octanol-water partition coefficient, log P of the compound at pH 7.4; assay type: physicochemical
Plasmodium falciparum [14] = assay: Antimalarial activity against chloroquine-sensitive Plasmodium falciparum at 1.4 nM relative to control; assay type: functional
Plasmodium falciparum [15] = assay: Antimalarial activity against chloroquine-sensitive Plasmodium falciparum at 5.2 nM relative to control; assay type: functional
[16] = Therapeutic index, ratio of compound activity in mouse assessed as body weight gain to compound activity against Plasmodium berghei infected in mouse; assay type: organism-based; conditions: in vivo, read-out: TI
Plasmodium falciparum [17] = assay: Antimalarial activity against chloroquine-sensitive Plasmodium falciparum at 4.6 nM relative to control; assay type: functional
Plasmodium falciparum [18] = assay: Antimalarial activity against multi-drug resistant Plasmodium falciparum; assay type: functional, organism-based
Plasmodium falciparum [19] = assay: Antimalarial activity against chloroquine-sensitive Plasmodium falciparum NF54; assay type: functional, organism-based
[20] = Half life in human infected with Plasmodium; conditions: in vivo
[21] = Drug degradation at 40 degC after 3 months; assay type: physicochemical; conditions: read-out: Drug degradation
[22] = Drug degradation at 40 degC after 1 month; assay type: physicochemical; conditions: read-out: Drug degradation

SMILES: Fc1ccc(C2=C[C@H]3OC4(CCCC4)OO[C@@]3(c3ccc(F)cc3)C2)cc1
pIC50 (Plasmodium falciparum [1]): > 8.30

SMILES: C[C@H]1[C@@H](CCc2ccc(C(=O)O)cc2)O[C@@H]2O[C@]3(C)CC[C@H]4[C@H](C)CC[C@@H]1[C@@]24OO3
half-life [2]: 0.546 days

SMILES: C[C@H]1[C@@H](Oc2ccc(C(F)(F)F)cc2)O[C@@H]2O[C@]3(C)CC[C@H]4[C@H](C)CC[C@@H]1[C@@]24OO3
ED50 (Plasmodium berghei [3]): 2.1 mg/kg

SMILES: C[C@H]1[C@@H](CCN2CCN(c3cccc(C(F)(F)F)c3)CC2)O[C@@H]2O[C@]3(C)CC[C@H]4[C@H](C)CC[C@@H]1[C@@]24OO3
ED50 (Plasmodium yoelii): 3.1 mg/kg

SMILES: C[C@H]1[C@@H](CCN2CCN(c3ccc(F)cc3)CC2)O[C@@H]2O[C@]3(C)CC[C@H]4[C@H](C)CC[C@@H]1[C@@]24OO3
ED50 (Plasmodium yoelii): < 10 mg/kg

SMILES: C[C@H]1[C@@H](CCN2CCN(c3ccccc3)CC2)O[C@@H]2O[C@]3(C)CC[C@H]4[C@H](C)CC[C@@H]1[C@@]24OO3
ED50 (Plasmodium yoelii): < 10 mg/kg

SMILES: C[C@H]1[C@@H](CCN2CCN(c3ccc([N+](=O)[O-])cc3)CC2)O[C@@H]2O[C@]3(C)CC[C@H]4[C@H](C)CC[C@@H]1[C@@]24OO3
ED50 (Plasmodium yoelii): < 10 mg/kg

SMILES: COC1(c2ccc(S(C)(=O)=O)cc2)C=CC2(CCCCCC2)OO1 (stereo not drawn)
pIC50 (Plasmodium berghei [4]): 7.51

SMILES: CC(C)C1=C[C@H]2OC3(CCC(NCCNc4ccnc5cc(Cl)ccc45)CC3)OO[C@@]2(C)CC1.O=C(O)CC(O)(CC(=O)O)C(=O)O (stereo partly drawn)
pIC50 (Plasmodium falciparum [5]): 8.30
ED50 (Plasmodium vinckei [6]): 18 mg/kg
pIC50 (Plasmodium falciparum [7]): 8.40
ED50 (Plasmodium vinckei [8]): 5 mg/kg

SMILES: C1CCCCCC2(CCCCC1)OOCCCOO2
pEC50 (Plasmodium falciparum [9]): 8.60

SMILES: C[C@@H]1CC[C@H]2[C@@H](C)C(Oc3ccccc3)O[C@@H]3O[C@@]4(C)CC[C@@H]1[C@]32OO4 (stereo partly drawn)
pIC50 (Plasmodium falciparum [5]): 8.28
pIC50 (Plasmodium falciparum [7]): 8.41

SMILES: C[C@@H]1CC[C@H]2[C@@H](C)[C@](O)(C(F)(F)F)O[C@@H]3O[C@@]4(C)CC[C@@H]1[C@]32OO4
pIC50 (Plasmodium falciparum [10]): 8.03
bioavailability [11]: 28%
half-life [12]: 31.7 days

SMILES: CO[C@@]1(C(F)(F)F)O[C@@H]2O[C@@]3(C)CC[C@H]4[C@H](C)CC[C@@H]([C@H]1C)[C@@]24OO3
pIC50 (Plasmodium falciparum [10]): 9.10
half-life [12]: 27.5 days

SMILES: CCO[C@@]1(C(F)(F)F)O[C@@H]2O[C@@]3(C)CC[C@H]4[C@H](C)CC[C@@H]([C@H]1C)[C@@]24OO3
pIC50 (Plasmodium falciparum [10]): 8.48
half-life [12]: 20.8 days

SMILES: C[C@@H]1CC[C@H]2[C@@H](C)[C@](OC(=O)CCC(=O)O)(C(F)(F)F)O[C@@H]3O[C@@]4(C)CC[C@@H]1[C@]32OO4
pIC50 (Plasmodium falciparum [10]): 8.39

SMILES: C[C@H]1[C@H](N2CCOCC2)O[C@@H]2O[C@@]3(C)CC[C@H]4[C@H](C)CC[C@@H]1[C@@]24OO3
logD [13]: 3.05

SMILES: C[C@H]1[C@H](N2CC[S+]([O-])CC2)O[C@@H]2O[C@@]3(C)CC[C@H]4[C@H](C)CC[C@@H]1[C@@]24OO3
logD [13]: 2.63

SMILES: C[C@H]1[C@H](c2ccco2)O[C@@H]2O[C@@]3(C)CC[C@H]4[C@H](C)CC[C@@H]1[C@@]24OO3
inhibition at 0.0014 µM (Plasmodium falciparum [14]): 50%

SMILES: Cc1ccc([C@@H]2O[C@@H]3O[C@@]4(C)CC[C@H]5[C@H](C)CC[C@@H]([C@H]2C)[C@@]35OO4)o1
inhibition at 0.0052 µM (Plasmodium falciparum [15]): 50%

SMILES: C[C@H]1[C@@H](CC(C[C@H]2O[C@@H]3O[C@@]4(C)CC[C@H]5[C@H](C)CC[C@@H]([C@H]2C)[C@@]35OO4)C(=O)O)O[C@@H]2O[C@@]3(C)CC[C@H]4[C@H](C)CC[C@@H]1[C@@]24OO3 (stereo partly drawn)
selectivity ratio [16]: 167

SMILES: CC(=O)OC1(C)CCC2CC1OO[C@]2(/C=C\c1ccc(F)cc1)c1ccccc1 (stereo partly drawn)
pIC50 (Plasmodium falciparum [1]): 7.54

SMILES: CC(=O)OC1(C)CCC2CC1OO[C@]2(/C=C\c1ccc(Cl)cc1)c1ccccc1 (stereo partly drawn)
pIC50 (Plasmodium falciparum [1]): 7.64

SMILES: CC1CCC2CC1OO[C@]2(C)/C=C/[C@H](O)C(C)(C)O (stereo partly drawn)
pIC50 (Plasmodium falciparum [1]): 6.94

SMILES: CC1CCC2CC1OO[C@]2(C)/C=C/[C@@H](O)C(C)(C)O (stereo partly drawn)
pIC50 (Plasmodium falciparum [1]): 7.25

SMILES: Cc1ccc(C2=C[C@H]3OC4(CCCC4)OO[C@@]3(c3ccc(C)cc3)C2)cc1
pIC50 (Plasmodium falciparum [1]): > 8.30

SMILES: Fc1ccc(C2=C[C@H]3OC4(CCOCC4)OO[C@@]3(c3ccc(F)cc3)C2)cc1
pIC50 (Plasmodium falciparum [1]): > 8.30

SMILES: C=C(C)[C@@H]1OO[C@]2(O[C@H]1C1CC1)[C@H]1CC3C[C@@H](C1)C[C@H]2C3
pIC50 (Plasmodium falciparum [1]): > 8.30

SMILES: C=C(C)[C@@H]1OO[C@]2(O[C@H]1CCC)[C@H]1CC3C[C@@H](C1)C[C@H]2C3
pIC50 (Plasmodium falciparum [1]): > 8.30

SMILES: OCCCCCCC1COOC2(CCCCCCCCCCC2)OOC1
pEC50 (Plasmodium falciparum [9]): 8.64

SMILES: Clc1ccc2c(NCCNC3CCC4(CC3)OOC3(c5ccccc5)CC(c5ccccc5)=CC3O4)ccnc2c1 (stereo not drawn)
pIC50 (Plasmodium falciparum [5]): 7.70
pIC50 (Plasmodium falciparum [7]): 8.15

SMILES: CC1(C)COC2(CCC(NC3CCC(Nc4ccnc5cc(Cl)ccc45)CC3)CC2)OO1 (stereo not drawn)
pIC50 (Plasmodium falciparum [5]): 8.15
pIC50 (Plasmodium falciparum [7]): 8.15

SMILES: Cc1ccc(OC2O[C@@H]3O[C@@]4(C)CC[C@H]5[C@H](C)CC[C@@H]([C@H]2C)[C@@]35OO4)cc1 (stereo partly drawn)
pIC50 (Plasmodium falciparum [5]): 8.28
pIC50 (Plasmodium falciparum [7]): 8.41

SMILES: C[C@@H]1CC[C@H]2[C@@H](C)C(Oc3ccc(C(F)(F)F)cc3)O[C@@H]3O[C@@]4(C)CC[C@@H]1[C@]32OO4 (stereo partly drawn)
pIC50 (Plasmodium falciparum [5]): 8.28
pIC50 (Plasmodium falciparum [7]): 8.41

SMILES: COc1ccc(OC2O[C@@H]3O[C@@]4(C)CC[C@H]5[C@H](C)CC[C@@H]([C@H]2C)[C@@]35OO4)cc1 (stereo partly drawn)
pIC50 (Plasmodium falciparum [5]): 8.28
pIC50 (Plasmodium falciparum [7]): 8.41

SMILES: C[C@@H]1CC[C@H]2[C@@H](C)C(Oc3ccc(F)cc3)O[C@@H]3O[C@@]4(C)CC[C@@H]1[C@]32OO4 (stereo partly drawn)
pIC50 (Plasmodium falciparum [5]): 8.28
pIC50 (Plasmodium falciparum [7]): 8.41

SMILES: C[C@@H]1CC[C@H]2[C@@H](C)C(Oc3ccc(Cl)cc3)O[C@@H]3O[C@@]4(C)CC[C@@H]1[C@]32OO4 (stereo partly drawn)
pIC50 (Plasmodium falciparum [5]): 8.28
pIC50 (Plasmodium falciparum [7]): 8.41

SMILES: C[C@@H]1CC[C@H]2[C@@H](C)C(Oc3ccc(-c4cccc5ccccc45)cc3)O[C@@H]3O[C@@]4(C)CC[C@@H]1[C@]32OO4 (stereo partly drawn)
pIC50 (Plasmodium falciparum [5]): 8.28
pIC50 (Plasmodium falciparum [7]): 8.41

SMILES: C[C@H]1[C@H](c2cccn2C)O[C@@H]2O[C@@]3(C)CC[C@H]4[C@H](C)CC[C@@H]1[C@@]24OO3
inhibition at 0.0046 µM (Plasmodium falciparum [17]): 50%

SMILES: C1CCCCCC2(CCCCC1)OOCCCCCOO2
pEC50 (Plasmodium falciparum [9]): 9.00

SMILES: CO[C@H]1O[C@@H]2O[C@@]3(C)CC[C@H]4[C@H](C)CC[C@@H]([C@H]1C)[C@@]24OO3 [ARTEMETHER]
ED50 (Plasmodium yoelii): 6 mg/kg
logD [13]: 4

SMILES: C[C@H]1[C@H](N2CCS(=O)(=O)CC2)O[C@@H]2O[C@@]3(C)CC[C@H]4[C@H](C)CC[C@@H]1[C@@]24OO3 [ARTEMIFONE]
ED90 (Plasmodium berghei [4]; sc): 1.5 mg/kg
logD [13]: 2.49
pEC50 (Plasmodium falciparum [18]): 9.85

SMILES: C[C@H]1[C@H](N2CCSCC2)O[C@@H]2O[C@@]3(C)CC[C@H]4[C@H](C)CC[C@@H]1[C@@]24OO3 [ARTEMISIDE]
logD [13]: 4.97

SMILES: C[C@@H]1CC[C@H]2[C@@H](C)C(=O)O[C@@H]3O[C@@]4(C)CC[C@@H]1[C@]32OO4 [ARTEMISININ]
pIC50 (Plasmodium falciparum [19]): 8.05
pIC50 (Plasmodium falciparum [1]): 8.55
half-life [20]: 0.0833 days

degraded at 2191.5 h [21]: 2.9%
degraded at 730.5 h [22]: 2%
SMILES: C[C@H]1[C@@H](O)O[C@@H]2O[C@@]3(C)CC[C@H]4[C@H](C)CC[C@@H]1[C@@]24OO3 [ARTENIMOL]

SMILES: C[C@H]1[C@H](OC(=O)CCC(=O)O)O[C@@H]2O[C@@]3(C)CC[C@H]4[C@H](C)CC[C@@H]1[C@@]24OO3 [SODIUM ARESUNATE]
pEC50 (Plasmodium falciparum [18]): 9.14

SMILES: C[C@H]1[C@@H](OCc2ccc(C(=O)[O-])cc2)O[C@@H]2O[C@]3(C)CC[C@H]4[C@H](C)CC[C@@H]1[C@@]24OO3.[Na+] [SODIUMARTELINATE]
half-life [2]: 10.8 days

Source: ChEMBL document CHEMBL3217710, “Antimalarial peroxides: advances in drug discovery and design” (Medchemcomm, 2012)
